Reference: patent publication US20080241263A1, “Oral and/or Topical Compositions Comprising Prebiotics and Sterols” (priority 2004, published 2008)

System: Bifidobacterium
Test: Stimulation of growth: enumeration of bifidobacterium in vitro in human faecal homogenate / WC broth
Assay type: cell-based, Bifidobacterium spp
Details: 1% test substance, incubated up to 24 hours
Experimental: (§1) The stimulation of growth of micro-organisms has been studied by enumerating bifidobacterium and lactobacilli in vitro in the presence of various test substances. More specifically, aliquots (1 mL) of human faecal homogenates (10 g per 100 mL diluent) were added to diluted WC broth (diluted 50:50 with 0.05M phosphate buffer) to which were added the test mixtures and a lactobacillus or bifidobacterium strain. For each of the combinations, parallel tubes were prepared with one set being inoculated with Bifidobacterium spp or Lactobacillus spp. All mixtures were then incubated for up to 24 hours and bacterial numbers enumerated.

Molecule | Bacterial numbers (CFU/ml)
CC[C@H](CC[C@@H](C)[C@H]1CC[C@H]2[C@@H]3CC=C4C[C@@H](O)CC[C@]4(C)[C@H]3CC[C@]12C)C(C)C [C5, β-Sitosterol] | 3.3 × 10^6 CFU/ml
CC[C@H](CC[C@@H](C)[C@H]1CC[C@H]2[C@@H]3CC[C@H]4C[C@@H](O)CC[C@]4(C)[C@H]3CC[C@]12C)C(C)C [C6, β-Sitostanol] | 2.4 × 10^6 CFU/ml
CCCCCCCCCCCCCCCC(=O)O[C@H]1CC[C@@]2(C)C(=CC[C@H]3[C@@H]4CC[C@H]([C@H](C)CC[C@@H](CC)C(C)C)[C@@]4(C)CC[C@@H]32)C1 [C7, β-Sitosterolpalmitate] | 2.7 × 10^6 CFU/ml
CCCCCCCCCCCCCCCCCC(=O)O[C@H]1CC[C@@]2(C)[C@@H](CC[C@@H]3[C@@H]2CC[C@]2(C)[C@@H]([C@H](C)CC[C@@H](CC)C(C)C)CC[C@@H]32)C1 [C8, β-Sitostanolstearate] | 3.2 × 10^6 CFU/ml

Same assay, conditions: 1% test substance/mixture, incubated up to 24 hours

Molecule | Bacterial numbers (CFU/ml)
Betaglucan [C4] | 1.2 × 10^7 CFU/ml
OC[C@H]1O[C@@H](O[C@H]2[C@H](O)[C@@H](O)[C@@H](O[C@]3(CO)O[C@H](CO)[C@@H](O)[C@@H]3O)O[C@@H]2CO)[C@H](O)[C@@H](O)[C@H]1O [C2, Lactosucrose] | 1.1 × 10^7 CFU/ml
Lactolin [C3] | 1.6 × 10^7 CFU/ml

System: Lactobacterium
Test: Stimulation of growth: enumeration of lactobacilli in vitro in human faecal homogenate / WC broth
Assay type: cell-based, Lactobacillus spp
Details: 1% test substance, incubated up to 24 hours
Experimental: as §1

Molecule | Bacterial numbers (CFU/ml)
CC[C@H](CC[C@@H](C)[C@H]1CC[C@H]2[C@@H]3CC=C4C[C@@H](O)CC[C@]4(C)[C@H]3CC[C@]12C)C(C)C [C5, β-Sitosterol] | 4.4 × 10^5 CFU/ml
CC[C@H](CC[C@@H](C)[C@H]1CC[C@H]2[C@@H]3CC[C@H]4C[C@@H](O)CC[C@]4(C)[C@H]3CC[C@]12C)C(C)C [C6, β-Sitostanol] | 4.4 × 10^5 CFU/ml
CCCCCCCCCCCCCCCC(=O)O[C@H]1CC[C@@]2(C)C(=CC[C@H]3[C@@H]4CC[C@H]([C@H](C)CC[C@@H](CC)C(C)C)[C@@]4(C)CC[C@@H]32)C1 [C7, β-Sitosterolpalmitate] | 4.4 × 10^5 CFU/ml
CCCCCCCCCCCCCCCCCC(=O)O[C@H]1CC[C@@]2(C)[C@@H](CC[C@@H]3[C@@H]2CC[C@]2(C)[C@@H]([C@H](C)CC[C@@H](CC)C(C)C)CC[C@@H]32)C1 [C8, β-Sitostanolstearate] | 4.5 × 10^5 CFU/ml

Same assay, conditions: 1% test substance/mixture, incubated up to 24 hours

Molecule | Bacterial numbers (CFU/ml)
Betaglucan [C4] | 1.1 × 10^6 CFU/ml
OC[C@H]1O[C@@H](O[C@H]2[C@H](O)[C@@H](O)[C@@H](O[C@]3(CO)O[C@H](CO)[C@@H](O)[C@@H]3O)O[C@@H]2CO)[C@H](O)[C@@H](O)[C@H]1O [C2, Lactosucrose] | 1.1 × 10^6 CFU/ml
Lactolin [C3] | 1.5 × 10^6 CFU/ml
